This note sets out measurements from publication PMC4684082 (Journal of the American Chemical Society, 2015).

Numbering of substitutions follows the chain as printed.

Assay [1] has as its target T1, wt hhIYD (iodotyrosine deiodinase from Haliscomenobacter hydrossis) (Haliscomenobacter hydrossis, UniProt F4KU78).
T1 sequence (F4KU78 1-222): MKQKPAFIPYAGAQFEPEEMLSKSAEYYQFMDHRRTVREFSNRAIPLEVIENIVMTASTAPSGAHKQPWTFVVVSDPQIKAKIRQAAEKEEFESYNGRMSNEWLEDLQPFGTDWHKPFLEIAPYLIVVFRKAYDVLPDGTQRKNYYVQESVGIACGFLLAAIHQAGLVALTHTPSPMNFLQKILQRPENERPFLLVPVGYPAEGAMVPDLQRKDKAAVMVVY
The experiment in a line: UV-vis spectrum of enzyme-bound FMN, dithionite reduction. In kind it is binding. To be noted: pH 6 MES, 500 mM NaCl, 10% glycerol; anaerobic.

Assay [2] concerns the target T1, wt hhIYD (iodotyrosine deiodinase from Haliscomenobacter hydrossis). Put plainly: quenching of active-site FMNox fluorescence. In kind it is binding.
Assay [3] concerns the target T2, wt hhIYD (iodotyrosine deiodinase from Haliscomenobacter hydrossis) (Haliscomenobacter hydrossis, UniProt F4KU78, T173A).
T2 sequence (F4KU78 1-222 T173A): T1 sequence (F4KU78 1-222) with T173A
The experiment in a line: quenching of active-site FMNox fluorescence. The class given is binding.

The target of assay [4] is T2, wt hhIYD (iodotyrosine deiodinase from Haliscomenobacter hydrossis). The experiment in a line: steady-state reductive deiodination. The class given is biochemical. Conditions: read-out: I2-Tyr / KM; dithionite as reductant.

On to `Cc1cc2nc3c(=O)[nH]c(=O)nc-3n(C[C@H](O)[C@H](O)[C@H](O)COP(=O)(O)O)c2cc1C` [FMN], for which, in assay [1], the “UV-vis spectrum of enzyme-bound FMN, dithionite reduction” value is “Stoichiometric addition of dithionite to wt hhIYD under anaerobic conditions reduced its FMNox to FMNhq”.

With `N[C@@H](Cc1cc(I)c(O)c(I)c1)C(=O)O` [I2-Tyr], the values for the Kd in assay [2] and in assay [3] were 2900 ± 100 nM and 2600 ± 200 nM, respectively. Further, in assay [4], the Km was determined as 35 ± 8 µM.
